# Values joined by “and” are separate entries in the source; they are usually repeats but may differ in a detail not shown here. Identical values can stand only once.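 All cell lines were grown in 96-well plates and treated with compound for 48 hours. Abbreviation: GI50, concentration required for 50% inhibition of growth. The concentration for full growth arrest is given as TGI.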
# What was measured:
# Test in all cases: NCI anticancer screen, dose series, 48 h
# SNB-78 CNS = tested on: SNB-78 CNS
# DLD-1 colon = tested on: DLD-1 colon
# HL-60(TB) leukemia = tested on: HL-60(TB) leukemia
# RPMI-8226 leukemia = tested on: RPMI-8226 leukemia
# SN12C renal = tested on: SN12C renal
# NCI-H522 lung = tested on: NCI-H522 lung
# NCI-H23 lung = tested on: NCI-H23 lung
# SK-MEL-5 melanoma = tested on: SK-MEL-5 melanoma
# HS 578T breast = tested on: HS 578T breast
# MDA-MB-231 breast = tested on: MDA-MB-231 breast
SMILES,TGI (SNB-78 CNS),TGI (DLD-1 colon),TGI (HL-60(TB) leukemia),TGI (RPMI-8226 leukemia),TGI (SN12C renal),TGI (NCI-H522 lung),TGI (NCI-H23 lung),TGI (SK-MEL-5 melanoma),GI50 (SNB-78 CNS) [mg/L],GI50 (DLD-1 colon),GI50 (HL-60(TB) leukemia) [mg/L],GI50 (RPMI-8226 leukemia) [mg/L],TGI (HS 578T breast) [µM],GI50 (SN12C renal) [mg/L],GI50 (NCI-H522 lung) [mg/L],TGI (MDA-MB-231 breast) [µM],GI50 (NCI-H23 lung) [mg/L],GI50 (SK-MEL-5 melanoma) [mg/L]
O=C1[C@@H](c2ccc(Cl)cc2)[C@H]2CC=C[C@H]2N1O,> 100 µM,> 100 µM,> 100 µM,> 100 µM,> 100 µM,> 100 µM,> 100 µM,> 100 µM,,,,,,,,,,
CSc1ccc(/C=C2\CNC/C(=C\c3ccc(SC)cc3)C2=O)cc1,150 mg/L,> 371 µM and 150 µg/mL,362 µM and 99.8 µg/mL,> 371 µM and 150 µg/mL,> 371 µM and 150 µg/mL,> 161 µM and 63.5 µg/mL,> 130 µM and 83.6 µg/mL,> 371 µM and 150 µg/mL,28.8,45.1 µM and 142 µg/mL,15.2,61.9,> 371,150,22.3,362,21.2,150
CC(=O)N(CCN)CCN,> 10 µM,> 100 µM,> 10 µM,> 10 µM,> 10 µM,> 10 µM,> 10 µM,> 100 µM,,,,,,,,,,
O=c1nc(-c2ccccc2)c2c3c(cccn13)CCC2,> 100 µM,> 100 µM,> 100 µM,> 100 µM,> 100 µM,> 100 µM,> 100 µM,> 100 µM,,,,,,,,,,
Cc1cc(C)c2c(c1)CN1CN2Cc2cc(C)cc(C)c21,40.2 µM,58.3 µM,48.8 µM,52.2 µM,32.6 µM,53.4 µM,55.4 µM,,,,,,,,,,,
COC(=O)c1ccc2c(c1)C(NC(C)=O)CCc1cc(OC)c(OC)c(OC)c1-2 (stereo unspecified),> 4.64 µM,> 100 µM,0.0285 µM,> 100 µM,> 96.1 µM,0.074 µM,1.35 µM,0.216 µM,,,,,7.78,,,> 100,,
CC1(C)C(=O)C(O)=CC2C1=CCC1C2(C)C(=O)CC2(C)C(C(C)(O)C(=O)CC(O)C(C)(C)O)C(O)CC12C (stereo unspecified),25.9 µM,> 74.6 µM,11.6 µM,19.1 µM,> 90.4 µM,8.61 µM,67.1 µM,8.53 µM,,,,,,,,,,
N#CC(C#N)SCc1ccccc1,> 91.7 µM,> 100 µM,14.7 µM,> 38.6 µM,> 100 µM,57.7 µM,89.1 µM,> 85.6 µM,,,,,98.3,,,,,
